According to ChEMBL document CHEMBL3714732, “Small molecule modulators of g protein-coupled receptor six” (2001):
Blank lines part the entries; values can stand above or below the molecule they belong to. Active and inactive are the calls of the source. No cut-off for these calls is given here.

Assays:
Rattus norvegicus [1] = assay: Reduction in body weight gain in 24 hrs food-deprived Sprague-Dawley rat assessed as body weight gain level at 100 umol/kg, po followed by standard chow pellets feeding and measured 6 hrs post dose (reference value: 19.25 to 20.3g); format: functional
[2] = target: T1, G-protein coupled receptor 6 (Homo sapiens, UniProt P46095); assay: Inverse agonist activity at rat G-protein GSalpha fused GPR6 (unknown origin) expressed in HEK293 cell membranes assessed as effect on [35S]GTPgammaS binding pre-incubated for 5 to 10 mins followed by 60 mins incubation in presence of [35S]GTPgammaS by scintillation proximity assay; format: functional
Rattus norvegicus [3] = assay: Reduction in water intake in 24 hrs food-deprived Sprague-Dawley rat assessed as water intake level at 100 umol/kg, po followed by standard chow pellets feeding and measured 6 hrs post dose (reference value: 19.25 to 22.9g); format: functional
[4] = target: T1, G-protein coupled receptor 6; assay: Inverse agonist activity at rat G-protein GSalpha fused GPR6 (unknown origin) expressed in HEK293 cell membranes assessed as cAMP accumulation pre-incubated for 30 mins by microbeta plate reader based assay; format: functional
Rattus norvegicus [5] = assay: Reduction in food intake in 24 hrs food-deprived Sprague-Dawley rat assessed as food intake level per 2 hrs at 100 umol/kg, po followed by standard chow pellets feeding and measured 8 hrs post dose (reference value: 2 to 2.5g/2 hrs); format: functional
Rattus norvegicus [6] = assay: Reduction in water intake in 24 hrs food-deprived Sprague-Dawley rat assessed as water intake level at 100 umol/kg, po followed by standard chow pellets feeding and measured 8 hrs post dose (reference value: 19g); format: functional
Rattus norvegicus [7] = assay: Reduction in body weight gain in 24 hrs food-deprived Sprague-Dawley rat assessed as body weight at 100 umol/kg, po followed by standard chow pellets feeding and measured 8 hrs post dose (reference value: 19.5g); format: functional
Rattus norvegicus [8] = assay: Reduction in food intake in 24 hrs food-deprived Sprague-Dawley rat assessed as food intake level at 100 umol/kg, po followed by standard chow pellets feeding and measured 8 hrs post dose (reference value: 14 to 14.5g); format: functional
Rattus norvegicus [9] = assay: Reduction in body weight gain in 24 hrs food-deprived Sprague-Dawley rat assessed as body weight gain level at 100 umol/kg, po followed by standard chow pellets feeding and measured 6 hrs post dose (reference value: 20.3g); format: functional
Rattus norvegicus [10] = assay: Reduction in water intake in 24 hrs food-deprived Sprague-Dawley rat assessed water intake level at 25 and 50 nmol, icv (reference value: 17 g); format: functional
Rattus norvegicus [11] = assay: Reduction in water intake in 24 hrs food-deprived Sprague-Dawley rat assessed as at 27 mg/kg, ip followed by standard chow pellets feeding and measured 6.5 hrs post dose relative to control; format: functional
Rattus norvegicus [12] = assay: Reduction in food intake in non-food-deprived Sprague-Dawley rat assessed as food intake level at 6.5 to 54 mg/kg, po followed by standard chow pellets feeding and measured 18 hrs post dose (reference value: 15g); format: functional
Rattus norvegicus [13] = assay: Reduction in food intake in 24 hrs food-deprived Sprague-Dawley rat dosed orally followed by standard chow pellets feeding; format: functional, organism-based
Rattus norvegicus [14] = assay: Reduction in body weight gain in non-food-deprived Sprague-Dawley rat at 13.5 mg/kg, ip qd for 22 days measured on day-1 and day-3 post dose; format: functional, organism-based
Rattus norvegicus [15] = assay: Reduction in body weight gain in non-food-deprived Sprague-Dawley rat at 13.5 mg/kg, ip qd for 22 days measured between day-4 and day-31 post dose; format: functional, organism-based
Rattus norvegicus [16] = assay: Reduction in food intake in 24 hrs food-deprived Sprague-Dawley rat assessed as food intake level at 54 mg/kg, ip followed by standard chow pellets feeding and measured 1.5 hrs post dose (reference value: 6g); format: functional
Rattus norvegicus [17] = assay: Reduction in water intake in 24 hrs food-deprived Sprague-Dawley rat at 100 nmol, icv; format: functional
Rattus norvegicus [18] = assay: Reduction in food intake in 24 hrs food-deprived Sprague-Dawley rat assessed as food intake level at 27 mg/kg, po followed by standard chow pellets feeding and measured 8 hrs post dose (reference value: 14g); format: functional
Rattus norvegicus [19] = assay: Reduction in water intake in non-food-deprived Sprague-Dawley rat at 6.75 to 54 mg/kg, ip dosed 30 mins before beginning of dark cycle followed by exposure to standard chow pellets and measured 15.5 hrs post dose; format: functional, organism-based
Rattus norvegicus [20] = assay: Induction of sedation in ip dosed Sprague-Dawley rat assessed as absence of anxiety like behavior after 16 hrs post dose; format: organism-based; details: in vivo
Rattus norvegicus [21] = assay: Reduction in food intake in non-food-deprived Sprague-Dawley rat assessed as food intake level at 13.5 mg/kg, ip dosed 30 mins before beginning of dark cycle followed by exposure to standard chow pellets and measured 4 hrs post dose (reference value: 9g); format: functional
Rattus norvegicus [22] = assay: Reduction in food intake in 24 hrs food-deprived Sprague-Dawley rat assessed as food intake level at 54 mg/kg, po followed by standard chow pellets feeding and measured 2.5 hrs post dose (reference value: 6g); format: functional
Rattus norvegicus [23] = assay: Reduction in food intake in 24 hrs food-deprived Sprague-Dawley rat assessed as food intake level at 54 mg/kg, po followed by standard chow pellets feeding and measured 8 hrs post dose (reference value: 14g); format: functional
Rattus norvegicus [24] = assay: Reduction in body weight gain in 24 hrs food-deprived Sprague-Dawley rat assessed as body weight level at 27 mg/kg, ip followed by standard chow pellets feeding and measured 6.5 hrs post dose; format: functional, organism-based
Rattus norvegicus [25] = assay: Reduction in body weight gain in 24 hrs food-deprived Sprague-Dawley rat assessed as body weight level at 54 mg/kg, ip followed by standard chow pellets feeding and measured 6.5 hrs post dose; format: functional, organism-based
Rattus norvegicus [26] = assay: Reduction in body weight gain in non-food-deprived Sprague-Dawley rat at 6.75 to 54 mg/kg, ip dosed 30 mins before beginning of dark cycle followed by exposure to standard chow pellets and measured 15.5 hrs post dose; format: functional, organism-based
Rattus norvegicus [27] = assay: Reduction in food intake in 24 hrs food-deprived Sprague-Dawley rat assessed food intake level at 25 to 100 nmol, icv measured 3 hrs post dose (reference value: 2.5g); format: functional
Rattus norvegicus [28] = assay: Reduction in body weight gain in 24 hrs food-deprived Sprague-Dawley rat assessed as body weight level at 13.5 mg/kg, ip followed by standard chow pellets feeding and measured 6.5 hrs post dose (reference value: 20g); format: functional
Rattus norvegicus [29] = assay: Reduction in food intake in 24 hrs food-deprived Sprague-Dawley rat assessed as food intake level at 54 mg/kg, ip followed by standard chow pellets feeding and measured 6.5 hrs post dose (reference value: =<14g); format: functional
Rattus norvegicus [30] = assay: Reduction in body weight gain in 24 hrs food-deprived Sprague-Dawley rat assessed body weight gain intake level at 100 nmol, icv (reference value: 12g); format: functional
Rattus norvegicus [31] = assay: Reduction in food intake in 24 hrs food-deprived Sprague-Dawley rat at 25 to 100 nmol, icv measured after 2 hrs post dose; format: functional
Rattus norvegicus [32] = assay: Reduction in food intake in 24 hrs food-deprived Sprague-Dawley rat assessed as food intake level at 27 mg/kg, po followed by standard chow pellets feeding and measured 2.5 hrs post dose (reference value: 6g); format: functional
Rattus norvegicus [33] = assay: Induction of sedation in non-food-deprived Sprague-Dawley rat subjected to pre-pulse of 12 db followed by 120 db pulse assessed as animal jump height level at 6.75 mg/kg, po dosed 4.5 hrs before test; format: organism-based; details: in vivo
Rattus norvegicus [34] = organism: Rattus norvegicus; assay: Effect on motor function in Sprague-Dawley rat assessed as effect on locomotor activity for 1.5 hrs tested immediately after compound dose; format: organism-based; details: in vivo
Rattus norvegicus [35] = assay: Induction of sedation in non-food-deprived Sprague-Dawley rat subjected to pre-pulse of 12 db followed by 120 db pulse assessed as animal jump height level at 13.5 and 54 mg/kg, po dosed 4.5 hrs before test; format: organism-based; details: in vivo
Rattus norvegicus [36] = assay: Reduction in water intake in 24 hrs food-deprived Sprague-Dawley rat at 54 mg/kg, ip followed by standard chow pellets feeding and measured 6.5 hrs post dose relative to control; format: functional
Rattus norvegicus [37] = assay: Reduction in food intake in non-food-deprived Sprague-Dawley rat assessed as food intake level at 54 mg/kg, ip dosed 30 mins before beginning of dark cycle followed by exposure to standard chow pellets and measured 4 hrs post dose (reference value: 9g); format: functional
Rattus norvegicus [38] = assay: Reduction in body weight gain in non-food-deprived Sprague-Dawley rat at 13.5 mg/kg, ip qd for 22 days measured between day-31 and day-60 post dose; format: functional, organism-based
Rattus norvegicus [39] = assay: Induction of sedation in ip dosed Sprague-Dawley rat assessed as relaxed behavior after 16 hrs post dose; format: organism-based; details: in vivo
Rattus norvegicus [40] = assay: Reduction in food intake in non-food-deprived Sprague-Dawley rat at 6.5 to 54 mg/kg, po followed by standard chow pellets feeding and measured 18 hrs post dose relative to control; format: functional

T1 sequence (P46095 whole entry, the tested form may be a part): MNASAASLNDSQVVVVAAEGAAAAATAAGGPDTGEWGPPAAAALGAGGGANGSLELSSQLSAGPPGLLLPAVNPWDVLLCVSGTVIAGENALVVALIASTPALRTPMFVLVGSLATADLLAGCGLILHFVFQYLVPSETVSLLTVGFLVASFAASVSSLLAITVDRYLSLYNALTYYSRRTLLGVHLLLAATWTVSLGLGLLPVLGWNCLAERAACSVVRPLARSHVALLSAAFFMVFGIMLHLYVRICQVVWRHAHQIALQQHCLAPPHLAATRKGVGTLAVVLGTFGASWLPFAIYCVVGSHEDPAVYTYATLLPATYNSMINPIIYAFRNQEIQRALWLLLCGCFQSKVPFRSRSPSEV

SMILES: CC(C)(C)c1ccc(C(=O)NC(=S)N2CCNC2=S)cc1
IC50 [2]: 200000 nM

SMILES: O=C(NC(=S)N1CCNC1=S)c1ccc2ccccc2c1
Activity (Rattus norvegicus [5]): 2.5 g | Activity (Rattus norvegicus [6]): 19 g | Activity (Rattus norvegicus [7]): 19.5 g

SMILES: Cc1cccc(C(=O)/N=C2\SSC3=NCCN32)c1
IC50 [2]: 790 nM | IC50 [4]: 140 nM

SMILES: O=C(/N=C1\SSC2=NCCN21)c1ccc(Cl)cc1
Activity (Rattus norvegicus [1]): 11.4 g | IC50 [2]: 640 nM | Activity (Rattus norvegicus [3]): 18.5 g | IC50 [4]: 270 nM | Activity (Rattus norvegicus [8]): 9.88 g

SMILES: O=C(NC(=S)N1CCNC1=S)c1ccccc1F
IC50 [4]: 200000 nM

SMILES: O=C(/N=C1\SSC2=NCCN21)c1ccc(C(F)(F)F)cc1
IC50 [2]: 570 nM | IC50 [4]: 170 nM

The next lines start with results.

IC50 [2]: 220 nM | IC50 [4]: 240 nM
SMILES: O=C(/N=C1\SSC2=NCCN21)c1cccc(F)c1
Activity (Rattus norvegicus [1]): 9.5 g | Activity (Rattus norvegicus [3]): 9.5 g | Activity (Rattus norvegicus [5]): 1 g | Activity (Rattus norvegicus [6]): 10 g | Activity (Rattus norvegicus [7]): 9 g | Activity (Rattus norvegicus [8]): 9.1 g

IC50 [2]: 460 nM | IC50 [4]: 350 nM
SMILES: Cc1noc(C)c1C(=O)/N=C1\SSC2=NCCN21

IC50 [2]: 440 nM | IC50 [4]: 170 nM
SMILES: O=C(/N=C1\SSC2=NCCN21)c1ccccc1
Activity (Rattus norvegicus [9]): 6.18 g

IC50 [2]: 420 nM | IC50 [4]: 100 nM
SMILES: O=C(/N=C1\SSC2=NCCN21)c1cccs1
Activity (Rattus norvegicus [10]): 17 g | fold change (FC) (Rattus norvegicus [11]): 4 | Activity (Rattus norvegicus [12]): <=5 g | Activity (Rattus norvegicus [13]): Dose-dependent effect | Activity (Rattus norvegicus [14]): Active | Activity (Rattus norvegicus [15]): Active | Activity (Rattus norvegicus [16]): 3 g | inhibition (INH) (Rattus norvegicus [17]): >=50% | Activity (Rattus norvegicus [18]): 8 g | Activity (Rattus norvegicus [19]): Active | Activity (Rattus norvegicus [20]): Toxic | Activity (Rattus norvegicus [21]): 4 g | Activity (Rattus norvegicus [22]): 4 g | Activity (Rattus norvegicus [23]): 6 g | Activity (Rattus norvegicus [24]): Active | Activity (Rattus norvegicus [25]): Active | Activity (Rattus norvegicus [26]): Active | Activity (Rattus norvegicus [27]): <=1 g | Activity (Rattus norvegicus [28]): 11 g | Activity (Rattus norvegicus [29]): 4 g | Activity (Rattus norvegicus [30]): 5 g | fold change (FC) (Rattus norvegicus [31]): 6 | Activity (Rattus norvegicus [32]): 6 g | Activity (Rattus norvegicus [33]): Non-toxic | Activity (Rattus norvegicus [34]): Non-toxic | Activity (Rattus norvegicus [35]): Toxic | fold change (FC) (Rattus norvegicus [36]): 5 | Activity (Rattus norvegicus [37]): 2 g | Activity (Rattus norvegicus [38]): Active | Activity (Rattus norvegicus [7]): 6 g | Activity (Rattus norvegicus [39]): Toxic | fold change (FC) (Rattus norvegicus [40]): 3 | Activity (Rattus norvegicus [8]): 8.1 g

IC50 [2]: 370 nM | IC50 [4]: 200 nM
SMILES: O=C(/N=C1\SSC2=NCCN21)c1ccc(F)cc1
Activity (Rattus norvegicus [1]): 4.03 g | Activity (Rattus norvegicus [3]): 8.5 g | Activity (Rattus norvegicus [8]): 7.93 g

IC50 [2]: 410 nM | IC50 [4]: 190 nM
SMILES: O=C(/N=C1\SSC2=NCCN21)c1ccc(F)cc1F

IC50 [2]: 310 nM | IC50 [4]: 400 nM
SMILES: COc1cccc(C(=O)/N=C2\SSC3=NCCN32)c1

IC50 [2]: 130 nM | IC50 [4]: 190 nM
SMILES: O=C(/N=C1\SSC2=NCCN21)c1cc2ccccc2s1
Activity (Rattus norvegicus [3]): 20 g | Activity (Rattus norvegicus [5]): 1 g | Activity (Rattus norvegicus [6]): 19 g | Activity (Rattus norvegicus [7]): 14 g | Activity (Rattus norvegicus [8]): 9.6 g
